Like-named read-outs stand apart in the source and are kept apart here.
Legend:
Gram-negative bacteria = test: Geometric mean MIC and therapeutic index, Gram-negative bacteria; assay type: cell-based; details: Gram-negative bacteria
Method: (§1) In this study, we aimed to investigate the potential of W5K series peptides for therapeutic use. To evaluate their efficacy for antibacterial therapy, we used the Therapeutic Index (TI) as a measure of their cell selectivity. The TI was calculated as the ratio of the concentration causing 10% hemolysis of human red blood cells (HC10) to the geometric mean minimum inhibitory concentration (GM) of the peptides against both Gram-negative and Gram-positive bacteria. This parameter was used to quantitatively assess the balance between antibacterial potency and cytotoxicity among the W5K derivatives.
(§2) The antibacterial activities of the peptides in Müller-Hinton (MH) broth and modified LYM broth were determined using the standard broth microdilution method as per Clinical and Laboratory Standards Institute (CLSI) guidelines. The LYM broth was prepared with specific components and adjusted to different conditions, including varying concentrations of NaCl and MgCl2, and different pH levels. To prepare the LYM broth, 5.4 mM KCl, 5.6 mM Na2HPO4, 0.5 mM MgSO4, and 1.0 mM sodium citrate were added. Additionally, 0.4 mg of ZnCl2, 2.0 mg of FeCl3·6H2O, 0.1 mg of CuSO4·5H2O, 0.1 mg of MnSO4·H2O, 0.1 mg of Na2B4O7∙10H2O, 700 mg of amino acid mixtures without tryptophan (Takara Bio Inc., San Jose, CA, USA), and 20 mg of L-tryptophan were added per liter of medium. The pH was adjusted to 7.4, and a vitamin mixture (100X, Sigma) and glucose concentration of 2% were added. For different conditions of LYM broth, NaCl concentrations of 300, 200, 150, and 50 mM, MgCl2 concentrations of 2.5, 1.5, and 0.5 mM, and pH levels of 6.5, 5.5, and 4.5 were adjusted. Bacterial strains were incubated in MH broth overnight, regrown, and diluted to a final concentration of 5 × 10^5 CFU/mL. Peptides were added to each well at final concentrations of 50, 25, 12.5, 6.25, 3.13, 1.56, and 0.78 µg/mL, and 99 µL of diluted microbes was loaded into each well of a polypropylene 96-well plate. […] The Morpheus HeatMap software (https://software.broadinstitute.org/morpheus/) was used to display MIC values on a color scale. All experiments were independently repeated three times.

[1] = test system: A. baumannii 14B00100 (Acinetobacter sp., BCRC number 14B0100)
Procedure, shortened: (§3)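 Broth microdilution per CLSI in Müller-Hinton broth and modified LYM broth (pH 7.4; variants with 300–50 mM NaCl, 2.5–0.5 mM MgCl2, or pH 6.5–4.5). Inoculum 5 × 10^5 CFU/mL; peptides at final 50 to 0.78 µg/mL, twofold series. MIC reported; three independent repeats.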

[2] = test system: A. baumannii 14B0091 (Acinetobacter sp., BCRC number 14B0091)
Procedure, shortened: as §3

S. aureus ATCC 33593 = test system: S. aureus ATCC 33593
Procedure, shortened: as §3

[3] = test system: Pseudomonas aeruginosa Migula (ATCC 27853)
Procedure, shortened: as §3

[4] = test system: Escherichia coli (ATCC 25922)
Procedure, shortened: as §3

S. aureus ATCC 33591 = test system: S. aureus ATCC 33591
Procedure, shortened: as §3

[5] = test system: Both Gram-positive and -negative bacteria; test: Geometric mean MIC, therapeutic index and fold changes of MIC, whole panel of strains; assay type: cell-based
Method: as §1, §2

[6] = LYM broth, 0 mM NaCl, 16 h, 37 °C
[7] = LYM broth, 50 mM NaCl, 16 h, 37 °C
[8] = LYM broth, 100 mM NaCl, 16 h, 37 °C
[9] = LYM broth, 200 mM (NaCl), 16 h, 37 °C
[10] = LYM broth, 300 mM (NaCl), 16 h, 37 °C
[11] = MH broth, 5 × 10^5 CFU/mL, 16 h, 37 °C, repeated three times

With Ac-AKKKKWRKWLKWL-NH2 [Peptide W5K10] the “GM G− (geometric mean of the MIC values)” value (Gram-negative bacteria; MH broth, MIC >50 µg/mL counted as 100 µg/mL) was 3.1 µg/mL, the “Therapeutic Index (TI) G−” value (Gram-negative bacteria; HC10/GM) was 34.8 and the MIC [1, 6] was 1.56 µg/mL. For the same substance, the MIC ([1]; LYM broth, 0.5 mM MgCl2) was 1.56 µg/mL, the MIC ([1]; LYM broth, 1.5 mM MgCl2) was 1.56 µg/mL and the MIC ([1]; LYM broth, 2.5 mM MgCl2) was 3.13 µg/mL. The MIC [1, 7] was 1.56 µg/mL, the MIC [1, 8] was 1.56 µg/mL and the MIC [1, 9] was 1.56 µg/mL. For the same substance, the MIC [1, 10] was 3.13 µg/mL, the MIC ([1]; LYM broth, pH 4.5) was 1.56 µg/mL and the MIC ([1]; LYM broth, pH 5.5) was 1.56 µg/mL. For the same substance, the MIC ([1]; LYM broth, pH 6.5) was 1.56 µg/mL, the MIC [1, 11] was 3.13 µg/mL and the MIC [2, 6] was 1.56 µg/mL. It also gave an MIC ([2]; LYM broth, 0.5 mM MgCl2) of 1.56 µg/mL, an MIC ([2]; LYM broth, 1.5 mM MgCl2) of 1.56 µg/mL and an MIC ([2]; LYM broth, 2.5 mM MgCl2) of 3.13 µg/mL. It also gave an MIC [2, 7] of 1.56 µg/mL, an MIC [2, 8] of 1.56 µg/mL and an MIC [2, 9] of 1.56 µg/mL. For the same substance, the MIC [2, 10] was 3.13 µg/mL, the MIC ([2]; LYM broth, pH 4.5) was 3.13 µg/mL and the MIC ([2]; LYM broth, pH 5.5) was 1.56 µg/mL. For the same substance, the MIC ([2]; LYM broth, pH 6.5) was 1.56 µg/mL, the MIC [2, 11] was 1.56 µg/mL and the MIC (S. aureus ATCC 33593; [6]) was 3.13 µg/mL. The MIC (S. aureus ATCC 33593; LYM broth, 0.5 mM MgCl2) was 3.13 µg/mL, the MIC (S. aureus ATCC 33593; LYM broth, 1.5 mM MgCl2) was 3.13 µg/mL and the MIC (S. aureus ATCC 33593; LYM broth, 2.5 mM MgCl2) was 6.25 µg/mL. For the same substance, the MIC (S. aureus ATCC 33593; [7]) was 6.25 µg/mL, the MIC (S. aureus ATCC 33593; [8]) was 6.25 µg/mL and the MIC (S. aureus ATCC 33593; [9]) was 12.5 µg/mL. The MIC (S. aureus ATCC 33593; [10]) was 25 µg/mL, the MIC (S. aureus ATCC 33593; LYM broth, pH 4.5) was 6.25 µg/mL and the MIC (S. aureus ATCC 33593; LYM broth, pH 5.5) was 3.13 µg/mL. It also gave an MIC (S. aureus ATCC 33593; LYM broth, pH 6.5) of 3.13 µg/mL, an MIC (S. aureus ATCC 33593; [11]) of 12.5 µg/mL and an MIC [3, 6] of 3.13 µg/mL. The MIC ([3]; LYM broth, 0.5 mM MgCl2) was 3.13 µg/mL, the MIC ([3]; LYM broth, 1.5 mM MgCl2) was 3.13 µg/mL and the MIC ([3]; LYM broth, 2.5 mM MgCl2) was 6.25 µg/mL. For the same substance, the MIC [3, 7] was 6.25 µg/mL, the MIC [3, 8] was 6.25 µg/mL and the MIC [3, 9] was 12.5 µg/mL. It also gave an MIC [3, 10] of 25 µg/mL, an MIC ([3]; LYM broth, pH 4.5) of 3.13 µg/mL and an MIC ([3]; LYM broth, pH 5.5) of 3.13 µg/mL. It also gave an MIC ([3]; LYM broth, pH 6.5) of 1.56 µg/mL, an MIC [3, 11] of 6.25 µg/mL and an MIC [4, 6] of 3.13 µg/mL. The MIC ([4]; LYM broth, 0.5 mM MgCl2) was 3.13 µg/mL, the MIC ([4]; LYM broth, 1.5 mM MgCl2) was 6.25 µg/mL and the MIC ([4]; LYM broth, 2.5 mM MgCl2) was 6.25 µg/mL. For the same substance, the MIC [4, 7] was 3.13 µg/mL, the MIC [4, 8] was 12.5 µg/mL and the MIC [4, 9] was 12.5 µg/mL. The MIC [4, 10] was 25 µg/mL, the MIC ([4]; LYM broth, pH 4.5) was 3.13 µg/mL and the MIC ([4]; LYM broth, pH 5.5) was 1.56 µg/mL. The MIC ([4]; LYM broth, pH 6.5) was 1.56 µg/mL, the MIC [4, 11] was 6.25 µg/mL and the MIC (S. aureus ATCC 33591; [6]) was 3.13 µg/mL. It also gave an MIC (S. aureus ATCC 33591; LYM broth, 0.5 mM MgCl2) of 3.13 µg/mL, an MIC (S. aureus ATCC 33591; LYM broth, 1.5 mM MgCl2) of 3.13 µg/mL and an MIC (S. aureus ATCC 33591; LYM broth, 2.5 mM MgCl2) of 6.25 µg/mL. It also gave an MIC (S. aureus ATCC 33591; [7]) of 6.25 µg/mL, an MIC (S. aureus ATCC 33591; [8]) of 6.25 µg/mL and an MIC (S. aureus ATCC 33591; [9]) of 12.5 µg/mL. The MIC (S. aureus ATCC 33591; [10]) was 25 µg/mL, the MIC (S. aureus ATCC 33591; LYM broth, pH 4.5) was 6.25 µg/mL and the MIC (S. aureus ATCC 33591; LYM broth, pH 5.5) was 3.13 µg/mL. The MIC (S. aureus ATCC 33591; LYM broth, pH 6.5) was 3.13 µg/mL, the MIC (S. aureus ATCC 33591; [11]) was 12.5 µg/mL and the “GM G−/+ (geometric mean of the MIC values)” value ([5]; Both Gram-positive and -negative bacteria, MH broth, MIC >50 µg/mL counted as 100 µg/mL) was 5.4 µg/mL. For the same substance, the “Therapeutic Index (TI) G−/+” value ([5]; HC10/GM, both Gram-positive and -negative bacteria) was 20.0 and the “weakening of antibacterial efficacy (MIC)” value ([5]; LYM broth, 300 mM NaCl) was “up to 4 fold”.
